Measurements as given in patent US20190315823A1, “SMALL CATIONIC ANTI-BIOFILM AND IDR PEPTIDES” (priority 2013, published 2019).
Ends that are not written are not given here.

What was measured:
[1] = system: methicillin resistant Staphylococcus aureus (MRSA) biofilm; conditions: approximate peptide concentration […] (around 3 μg/ml); compared to untreated samples
Outline: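 Peptide was present from inoculation onward, with bacteria seeded at 1/100 from overnight cultures into BM2 biofilm medium or Luria Broth. Crystal violet staining of surface-attached cells (A595) quantified biofilm reduction at 22–46 h. K. pneumoniae was additionally screened in a real-time Bioflux flow device for some peptides.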

[2] = system: human peripheral blood mononuclear cells (MCP-1); assay: SPOT-synthesized derivative screen: production of chemokine MCP-1; assay type: cell-based; conditions: Table 12, No LPS, human PBMC, peptide at ~18-24 μM; for MCP1: background subtracted 139 (HH2 derivatives), 170 (1018 derivatives), 242 (1002 and hybrid peptides) pg/ml
Outline: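 MCP-1 was quantified by capture ELISA in cleared culture supernatants of treated human peripheral blood mononuclear cells. Cells came from heparinized volunteer blood via Ficoll gradient and were seeded at 0.75 to 1×10^6 cells/ml (37 °C, 5% CO2).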

[3] = system: LPS-stimulated human peripheral blood mononuclear cells (IL1-β); assay type: cell-based; conditions: Table 12, cells stimulated with 10 ng/ml LPS; for IL1β Production: LPS alone 1313 (HH2 derivatives), 1927 (1018 derivatives), 2455 (1002 and hybrid peptides) pg/ml

1018-V11: single substituted 1018 peptide (VRLIVAVRIWVR-NH2) [Peptide 1018-V11]
% Biofilm inhibition [1]: 29% | Fold increase in MCP1 cf. untreated cells [2]: 1.0 | MCP1 [2]: 2 pg/mL | Fold change in IL1β relative to no peptide LPS stimulated cells [3]: 0.94 | IL1β Production [3]: 1240 pg/mL

1002-V6: single substituted 1002 peptide (VQRWLVVWRIRK-NH2) [Peptide 1002-V6]
% Biofilm inhibition [1]: 71% | Fold increase in MCP1 cf. untreated cells [2]: 1.5 | MCP1 [2]: 113.5 pg/mL | Fold change in IL1β relative to no peptide LPS stimulated cells [3]: 0.05 | IL1β Production [3]: 127 pg/mL

HH2-V8: single substituted HH2 peptide (VQLRIRVVVIRA-NH2)
% Biofilm inhibition [1]: 66% | Fold increase in MCP1 cf. untreated cells [2]: 45 | MCP1 [2]: 7460 pg/mL | Fold change in IL1β relative to no peptide LPS stimulated cells [3]: 0.53 | IL1β Production [3]: 691 pg/mL

1018-R3: single substituted 1018 peptide (VRRIVAVRIWRR-NH2) [Peptide 1018-R3]
% Biofilm inhibition [1]: 29% | Fold increase in MCP1 cf. untreated cells [2]: 3.0 | MCP1 [2]: 349 pg/mL | Fold change in IL1β relative to no peptide LPS stimulated cells [3]: 1.25 | IL1β Production [3]: 1636 pg/mL

1018-V4: single substituted 1018 peptide (VRLVVAVRIWRR-NH2) [Peptide 1018-V4]
% Biofilm inhibition [1]: 75% | Fold increase in MCP1 cf. untreated cells [2]: 1.2 | MCP1 [2]: 29 pg/mL | Fold change in IL1β relative to no peptide LPS stimulated cells [3]: 0.11 | IL1β Production [3]: 144 pg/mL

1018-W2: single substituted 1018 peptide (VWLIVAVRIWRR-NH2) [Peptide 1018-W2]
% Biofilm inhibition [1]: 68% | Fold increase in MCP1 cf. untreated cells [2]: 1.5 | MCP1 [2]: 83 pg/mL | Fold change in IL1β relative to no peptide LPS stimulated cells [3]: 0.73 | IL1β Production [3]: 962 pg/mL

HH2-V2: single substituted HH2 peptide (VVLRIRVAVIRA-NH2)
% Biofilm inhibition [1]: 77% | Fold increase in MCP1 cf. untreated cells [2]: 24 | MCP1 [2]: 3945 pg/mL | Fold change in IL1β relative to no peptide LPS stimulated cells [3]: 0.97 | IL1β Production [3]: 1267 pg/mL

1018-I3: single substituted 1018 peptide (VRIIVAVRIWRR-NH2) [Peptide 1018-I3]
% Biofilm inhibition [1]: 68% | Fold increase in MCP1 cf. untreated cells [2]: 0.7 | MCP1 [2]: -50 pg/mL | Fold change in IL1β relative to no peptide LPS stimulated cells [3]: 0.12 | IL1β Production [3]: 156 pg/mL

HH2-V6: single substituted HH2 peptide (VQLRIVVAVIRA-NH2)
% Biofilm inhibition [1]: 39% | Fold increase in MCP1 cf. untreated cells [2]: 40 | MCP1 [2]: 6624 pg/mL | Fold change in IL1β relative to no peptide LPS stimulated cells [3]: 0.53 | IL1β Production [3]: 694 pg/mL

1002-A1: single substituted 1002 peptide (AQRWLIVWRIRK-NH2) [Peptide 1002-A1]
% Biofilm inhibition [1]: 55% | Fold increase in MCP1 cf. untreated cells [2]: 19.8 | MCP1 [2]: 4559.2 pg/mL | Fold change in IL1β relative to no peptide LPS stimulated cells [3]: 0.05 | IL1β Production [3]: 127 pg/mL

1002-I1: single substituted 1002 peptide (IQRWLIVWRIRK-NH2) [Peptide 1002-I1]
% Biofilm inhibition [1]: 64% | Fold increase in MCP1 cf. untreated cells [2]: 17.7 | MCP1 [2]: 4059.0 pg/mL | Fold change in IL1β relative to no peptide LPS stimulated cells [3]: 0.05 | IL1β Production [3]: 127 pg/mL

1018-A10: single substituted 1018 peptide (VRLIVAVRIARR-NH2) [Peptide 1018-A10]
% Biofilm inhibition [1]: 54% | Fold increase in MCP1 cf. untreated cells [2]: 1.0 | MCP1 [2]: 7 pg/mL | Fold change in IL1β relative to no peptide LPS stimulated cells [3]: 0.28 | IL1β Production [3]: 369 pg/mL

1002-K1: single substituted 1002 peptide (KQRWLIVWRIRK-NH2) [Peptide 1002-K1]
% Biofilm inhibition [1]: 75% | Fold increase in MCP1 cf. untreated cells [2]: 26.4 | MCP1 [2]: 6146.9 pg/mL | Fold change in IL1β relative to no peptide LPS stimulated cells [3]: 0.05 | IL1β Production [3]: 127 pg/mL
